What was measured:
[1] = test system: A431 cells (EGFR WT); test: Cell antiproliferation experiment (1), A431 cells, CellTiter Glo; assay type: cell-based; details: Homo sapiens, A-431, 72 h, read-out: anti-proliferation effect on cells A431 EGFR WT IC50
Procedure: 1) Cell Culture and Passage
(1) A431 medium: 88% DMEM+10% fetal bovine serum+1% L-glutamine+1% double-antibody
(2) A431 cells were isolated and passaged every 3-4 days, wherein the number of the cells for 3-day passage was 5e6 cells per T75 culture flask, and the number of the cells for 4-day passage was 3e6 cells per T75 culture flask.
2) Day 1: Preparation of Cell Plate
(1) Phosphate buffer, trypsin, and a culture medium were placed in a water bath at 37° C. to preheat.
(2) The original medium was removed from the cell culture flask and washed once with 6 mL of PBS.
(3) 5 mL of phosphate buffer was pipetted into the culture flask to rinse the cells (passage 17), and then the liquid was discarded.
(4) The cell culture flask was added with 3.5 mL of trypsin, and shaken gently, trypsin was removed after fully contact with the cells, and then the culture flask was placed in an incubator containing 5% CO2 at 37° C. for about 1 minute;
(5) The cells were resuspended in 10 mL cell culture medium, and about 0.6 mL of cell suspension was take out for counting (ViCell XR);
(6) The cell suspension was diluted with the medium to the cell density of 5e4 cells per ml, which was required for plating (cell concentration: 2500 cells per well);
(7) 100 μL of phosphate buffer solution was added to each well around the cell plate, while 50 μL of the cell suspension was added to other wells, and the plate was incubated overnight in a incubator containing 5% CO2 at 37° C.
(1) 9 μL of the compound (concentration: 1 mM) was added into a shallow well plate for Echo.
(2) The shallow well plate was centrifuged at 1000 rpm for 10 s and the cell plate was removed from the incubator.
(3) According to the layout of the microplate, the compounds was diluted with a three-fold concentration gradient using Echo, each compound was diluted to 10 concentration gradients and 250 nL of the diluted compounds was respectively added to the cell plate, and then the cell plate was returned to the incubator and further incubated for 3 days.
4) Day 5: Adding CTG and Reading the Plate
(1) After incubation for 72 h, 25 μL of CellTiter Glo was added to each well of the cell plate, followed by shaking the plate for 10 min in the dark.
(2) The plate was read on Envision.
Data analysis: By computer fitting, the corresponding concentration of the compound at 50% inhibition rate was read as the IC50 of the compound for inhibiting cell activity.

[2] = test system: Ba/F3 (EGFR Δ19del/T790M/C797S) cells; test: Anti-proliferation experiment on cells (2), Ba/F3 (EGFR Δ19del/T790M/C797S); assay type: cell-based; details: Ba/F3 EGFR, 72 h; Ba/F3 cells, 3 days; read-out: anti-proliferation effect on cells Ba/F3(Δ19del/T790M/C797S) IC50
Procedure: The compounds ware transferred to a 384-well plate, with 125 nL of compound per well. […] After 3 days, 25 μL of detection reagent was added. The plate was incubated at room temperature for 10 minutes and then read with Envision.

[3] = test system: pEGFR Ba/F3 (EGFR Δ19del/T790M/C797S) cells; test: Cell phosphorylation inhibition experiment, pEGFR Ba/F3 (EGFR Δ19del/T790M/C797S); assay type: cell-based; details: Ba/F3 EGFR; Ba/F3 cells, EGF stimulated; read-out: Effect on cellular EGFR phosphorylation Ba/F3(Δ19del/T790M/C797S) IC50
Procedure: The test compounds and reference compounds were diluted with 100% DMSO to 10 mM or 1 mM, and then a gradient dilution was performed by using Echo, 150 nL per well, with a three-fold concentration gradient and a ten-point dose response curve. The final concentration of the compounds was 100 μM or 10 μM. The suspension cells was centrifuged at 1000 rp for 5 minutes, suspend in Hanks' balanced salt solution, and added to a 384-well plate containing the compounds at 10 L/120K/well (the cell density of 1.2×10^7), followed by centrifugation at 1200 rpm for 30 s and incubation at 37° C. for 30 min. 5 μL of EGF (which has been diluted with 0.1% BSA Hanks' balanced salt solution) was added to each well, in which the final concentration of EGF was 1 μM. The plate was centrifuged at 1200 rpm for 30 s and incubated at 37° C. for 20 min. 5 μL of 4× lysis buffer containing blocking solution was added to each well, and then the plate was centrifuged at 1200 rpm for 30 s, and incubated at 37° C. for 30 min.

[4] = Plasma, tumor and lung exposure in mice of the Ba/F3 CDX efficacy experiment; assay type: in vivo; details: mouse, 15.0 mg/kg/day oral; for concentration at 2 h / Lung, 2 h / Tumor, 2 h: 2 h after administration
Procedure: On Day 14 after administration to the groups for the efficacy experiment, the plasma was collected from the mice by submandibular blood collection before last administration and 2 hours after last administration, and the plasma samples were collected from the mice at 1 h, 4 h, 8 h and 24 h after administration. About 100 ul of blood was collected each time, placed in an anticoagulation tube, and centrifuged at 8000 rpm for 7 min, to collect plasma, which was stored at −80° C.

[5] = test system: Ba/F3 (Δ19del/T790M/C797S) xenograft; test: In vivo efficacy (1): Ba/F3 (Δ19del/T790M/C797S) subcutaneous xenograft (CDX) in BALB/c nude mice; details: for TGI (the tumor inhibition value): 45 mg/kg oral daily, 13 consecutive days;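 for all read-outs here: female nude mice, dosing begun at mean tumor size near 80–120 mm^3, tumors measured by caliper twice weekly, volume in mm^3 computed as 0.5×long×short diameter squared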
Procedure: BALB/c nude mice, female, 6-8 weeks old, 18-20 g of body weight, were housed in SPF-grade environment, and each cage was individually ventilated (5 mice per cage). […] A total of 48 mice purchased from Beijing Weitonglihua company were used for the study. Each mouse was implanted with cells at the right flank, for tumor growth. The experiment was started when the average tumor volume reached approximately 80-120 mm^3. […] Tumor volume was measured twice a week with a two-dimensional caliper, measured in mm^3 and calculated by the following formula: V=0.5a×b^2, wherein a and b are the long and short diameters of the tumor, respectively. Antitumor efficacy was determined by dividing the average increase of the tumor volume of the animals treated with the compound by the average increase of the tumor volume of the untreated animals.

SMILES	IC50 [1] [nM]	IC50 [2] [nM]	IC50 [3] [nM]	half-life ([4]; BALB/c nude, plasma) [h]	concentration at 2 h ([4]; BALB/c nude, plasma) [µM]	Lung, 2 h [4] [nmol/kg]	Tumor, 2 h [4] [nmol/kg]	Tumor volume Day 0 ([5]; 5 mg/kg/day oral) [mm^3]	Tumor volume Day 2 ([5]; 5 mg/kg/day oral) [mm^3]	Tumor volume Day 5 ([5]; 5 mg/kg/day oral) [mm^3]	Tumor volume Day 8 ([5]; 5 mg/kg/day oral) [mm^3]	Tumor volume Day 10 ([5]; 5 mg/kg/day oral) [mm^3]	Tumor volume Day 12 ([5]; 5 mg/kg/day oral) [mm^3]	Tumor volume Day 13 ([5]; 5 mg/kg/day oral) [mm^3]	Tumor volume Day 0 ([5]; 15 mg/kg/day oral) [mm^3]	Tumor volume Day 2 ([5]; 15 mg/kg/day oral) [mm^3]	Tumor volume Day 5 ([5]; 15 mg/kg/day oral) [mm^3]	Tumor volume Day 8 ([5]; 15 mg/kg/day oral) [mm^3]	Tumor volume Day 10 ([5]; 15 mg/kg/day oral) [mm^3]	Tumor volume Day 12 ([5]; 15 mg/kg/day oral) [mm^3]	further results
COc1cc(N2CCC(N3CCN(C)CC3)CC2)c(C)cc1Nc1ncc(Br)c(Nc2ccc3nccnc3c2P(C)(C)=O)n1 [Compound 34]	154	22	19	10	3.55	32533	16667	84	108	212	395	505	748	881	84	76	107	126	176	292	Tumor volume Day 13 ([5]; 15 mg/kg/day oral): 326 mm^3; TGI (the tumor inhibition value) [5]: 101%; Tumor volume Day 0 ([5]; 45 mg/kg/day oral): 84 mm^3; Tumor volume Day 2 ([5]; 45 mg/kg/day oral): 56 mm^3; Tumor volume Day 5 ([5]; 45 mg/kg/day oral): 32 mm^3; Tumor volume Day 8 ([5]; 45 mg/kg/day oral): 35 mm^3; Tumor volume Day 10 ([5]; 45 mg/kg/day oral): 42 mm^3; Tumor volume Day 12 ([5]; 45 mg/kg/day oral): 73 mm^3; Tumor volume Day 13 ([5]; 45 mg/kg/day oral): 68 mm^3
CCc1cc(Nc2ncc(Br)c(Nc3ccc4nccnc4c3P(C)(C)=O)n2)c(OC)cc1N1CCC(N2CCN(C)CC2)CC1 [Compound 41]	245	9	25	20.5	6.99	29567	18567	84	103	203	348	485	707	814	84	68	69	82	115	146	AUC(0-t) ([4]; BALB/c nude, plasma): 122 µM·h; Tumor volume Day 13 ([5]; 15 mg/kg/day oral): 211 mm^3; TGI (the tumor inhibition value) [5]: 109%; Tumor volume Day 0 ([5]; 45 mg/kg/day oral): 84 mm^3; Tumor volume Day 2 ([5]; 45 mg/kg/day oral): 47 mm^3; Tumor volume Day 5 ([5]; 45 mg/kg/day oral): 24 mm^3; Tumor volume Day 8 ([5]; 45 mg/kg/day oral): 7 mm^3; Tumor volume Day 10 ([5]; 45 mg/kg/day oral): 4 mm^3; Tumor volume Day 12 ([5]; 45 mg/kg/day oral): 0 mm^3; Tumor volume Day 13 ([5]; 45 mg/kg/day oral): 0 mm^3

From patent US11390625B2, “Aryl-phosphorus-oxygen compound as EGFR kinase inhibitor” (Chia Tai Tianqing Pharmaceutical Group Co., Ltd., priority 2017, dated 2022)
